Source: US20160193179A1, “Treatment of Cardiovascular Risk in Diabetic Patients” (EVOLVA SA, priority 2012, published 2016)

How the values were obtained:
[1] = tested on: VCAM-1 and ICAM-1 protein expression in HUVEC; assay: Western blot of VCAM-1 and ICAM-1 protein expression induced by TNFα in HUVEC; format: cell-based, human; conditions: TNFα 6 h, western blot normalised by β-actin
Experimental: FIGS. 2B and 2C show the effect of Compound 3 on VCAM-1 and ICAM-1 protein expression induced by TNFα in HUVEC after 6 h of incubation. B) Total protein extracts are recovered and analysed by western blot. β-actin serves as the loading control. C) Quantification of optical density of each band. Results are expressed as the ratio between the optical density of VCAM-1 or ICAM-1 and the optical density of β-actin.
HUVEC are seeded at 187,500 cells/flask in gelatin-coated T75 in EGM. After 4 days, cell medium is replaced by EBM containing or not containing Compound 3 at different concentrations. After 1 h of preincubation, 1 ng/ml TNFα is added or is not added into the T75 flasks. 6 h after, cell media are collected and centrifuged at 500 g for 5 min to pellet and pool floating cells with adherent cells. Adherent cells are washed twice with cold PBS and are collected in 1.5 ml of PBS. Harvested cells are then centrifuged at 500 g for 5 min at 4° C. […] Protein concentration is measured using Pierce method (Pierce 660 nm protein assay, Thermoscientific, USA) with the Ionic Detergent Compatibility Reagent (Thermoscientific, USA). […] Antibody binding was analysed with the scanner Odyssey Image System (Li-COR, Biosciences, USA) and Odyssey V3.0 software. Optical density of each band is also determined by using the software.

TP receptor = target: T1, TP receptor (Homo sapiens, UniProt P21731); conditions: 0.125 to 2.5 mg/kg; cited from earlier work
T1 sequence (P21731 1-343): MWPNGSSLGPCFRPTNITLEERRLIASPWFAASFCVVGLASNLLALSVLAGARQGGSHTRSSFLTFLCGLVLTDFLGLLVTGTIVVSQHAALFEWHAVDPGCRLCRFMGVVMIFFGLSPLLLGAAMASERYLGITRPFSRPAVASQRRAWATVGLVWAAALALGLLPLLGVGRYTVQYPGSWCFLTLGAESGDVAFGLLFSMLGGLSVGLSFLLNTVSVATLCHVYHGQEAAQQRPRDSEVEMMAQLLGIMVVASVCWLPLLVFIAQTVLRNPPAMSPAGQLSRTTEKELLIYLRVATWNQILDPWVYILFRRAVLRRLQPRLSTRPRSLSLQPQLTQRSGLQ

[2] = tested on: 6-keto PGF1α secretion by HUVEC; assay: 6-keto PGF1α EIA, secretion by HUVEC; format: cell-based, human; conditions: HUVEC 6 h
Experimental: 6-ketoPGF1α secretion is evaluated using a specific EIA assay. Results are expressed in picograms of 6-ketoPGF1α reported to micrograms of proteins measured by the Folin method on cell lysates. Data are means±S.D. (n=3). Statistical analysis: one way ANOVA followed by Bonferroni, Versus CTL, * p<0.05.
HUVEC are seeded at 25,000 cells/well on gelatin-coated 24-well plate (Corning) in EGM. After 48 h, cell medium is replaced by EBM containing or not containing Compound 3 at different concentrations. After 1 h of preincubation, 1 ng/ml TNFα is added or is not added to the wells. 6 h after adding TNFα, medium of each well is collected and cell lysis is performed in NaOH 0.5 N for 30 min. PTX3 secretion in the incubation medium is assayed using specific ELISAs (#DPTX30, Quantikine, R&D Systems, USA) according to the procedure provided by the supplier. 6-ketoPGF1α levels in cell culture media are determined using a competitive assay (#515211, Cayman, USA). Results are expressed in picograms of PTX3 or 6-ketoPGF1α reported to micrograms of proteins measured by the Folin method (Folin-Ciocalteu's phenol reagent, Merck, Germany) in cell lysates.

In the case of `CC(C)(C)N.O=C(O)CC/C=C\C[C@@H]1CO[C@H](c2ccccc2Cl)O[C@@H]1c1ccccc1O` [Compound 3, tert-butylammonium (Z)-6-((2S,4S,5R)-2-(2-chlorophenyl)-4-(2-hydroxyphenyl)-1,3-dioxan-5-yl)hex-4-enoate], the “ICAM-1 protein expression induced by TNFα” value [1] is listed as “no effect”, the “VCAM-1 protein expression induced by TNFα” value [1] is listed as “no effect” and the “TP receptor activation in vivo” value (TP receptor) is listed as “antagonize TP receptor activation in vivo”. For the same compound, the “6-keto PGF1α secretion” value ([2]; 600 nM Compound 3 together with 1 ng/ml TNFα) was “significant increase” and the “6-keto PGF1α secretion” value ([2]; Compound 3 alone, without TNFα) was “do not increase”.
